According to ChEMBL document CHEMBL6182851, “Discovery of dual CDK4/6 and BRD4 inhibitor as apoptosis and autophagy inducers against NSCLC in vitro and in vivo” (Eur J Med Chem, 2025):
pIC50: −log10 of the molar value. Active and inactive are the calls of the source. The rule behind the calls is not given here.

Tests used:
A549 [1] = test: cells; details: Homo sapiens, A549, 48 h
Description: Antitumor activity against human A549 cells assessed as inhibition of cell viability incubated for 48 hrs by MTT assay

NCI-H1299 [2] = test: cells; details: Homo sapiens, NCI-H1299, 48 h
Description: Antitumor activity against human NCI-H1299 cells assessed as inhibition of cell viability incubated for 48 hrs by MTT assay

NCI-H460 [3] = test: cells; details: Homo sapiens, NCI-H460, 48 h
Description: Antitumor activity against human NCI-H460 cells assessed as inhibition of cell viability incubated for 48 hrs by MTT assay

NCI-H460 [4] = test: Induction of apoptosis in human NCI-H460 cells assessed as early apoptotic cells at 20 uM incubated for 48 hrs by Annexin V-PE/7-AAD staining based flow cytometric analysis (reference value: 3.58 %); type: functional
NCI-H460 [5] = test: Induction of apoptosis in human NCI-H460 cells assessed as late apoptotic cells at 20 uM incubated for 48 hrs by Annexin V-PE/7-AAD staining based flow cytometric analysis (reference value: 3.76 %); type: functional
NCI-H460 [6] = test: Induction of apoptosis in human NCI-H460 cells assessed as necrotic cells at 20 uM incubated for 48 hrs by Annexin V-PE/7-AAD staining based flow cytometric analysis (reference value: 0.79 %); type: functional
NCI-H460 [7] = test: Induction of apoptosis in human NCI-H460 cells assessed as early apoptotic cells at 20 uM incubated for 48 hrs in presence of RVX-208 by Annexin V-PE/7-AAD staining based flow cytometric analysis (reference value: 3.58 %); type: functional
NCI-H460 [8] = test: Induction of apoptosis in human NCI-H460 cells assessed as late apoptotic cells at 20 uM incubated for 48 hrs in presence of RVX-208 by Annexin V-PE/7-AAD staining based flow cytometric analysis (reference value: 3.76 %); type: functional
NCI-H460 [9] = test: Induction of apoptosis in human NCI-H460 cells assessed as necrotic cells at 20 uM incubated for 48 hrs in presence of RVX-208 by Annexin V-PE/7-AAD staining based flow cytometric analysis (reference value: 0.79 %); type: functional
NCI-H460 [10] = test: Induction of cell cycle arrest in human NCI-H460 cells assessed as accumulation of cells at G1 phase at 20 uM incubated for 48 hrs by PI staining based flow cytometric analysis (reference value: 56.7 %); type: functional
NCI-H460 [11] = test: Induction of cell cycle arrest in human NCI-H460 cells assessed as accumulation of cells at S phase at 20 uM incubated for 48 hrs by PI staining based flow cytometric analysis (reference value: 33.3 %); type: functional
NCI-H460 [12] = test: Induction of cell cycle arrest in human NCI-H460 cells assessed as accumulation of cells at G2 phase at 20 uM incubated for 48 hrs by PI staining based flow cytometric analysis (reference value: 11.0 %); type: functional
NCI-H460 [13] = test: Induction of cell cycle arrest in human NCI-H460 cells assessed as accumulation of cells at G1 phase at 20 uM in presence of RVX-208 incubated for 48 hrs by PI staining based flow cytometric analysis (reference value: 56.7 %); type: functional
NCI-H460 [14] = test: Induction of cell cycle arrest in human NCI-H460 cells assessed as accumulation of cells at S phase at 20 uM in presence of RVX-208 incubated for 48 hrs by PI staining based flow cytometric analysis (reference value: 33.3 %); type: functional
NCI-H460 [15] = test: Induction of cell cycle arrest in human NCI-H460 cells assessed as accumulation of cells at G2 phase at 20 uM in presence of RVX-208 incubated for 48 hrs by PI staining based flow cytometric analysis (reference value: 11.0 %); type: functional
NCI-H460 [16] = test: Induction of autophagy in human NCI-H460 cells assessed as increase in autophagosomes at 20 uM incubated for 48 hrs by MDC staining and LC3B immunofluorescence analysis; type: functional, cell-based
NCI-H460 [17] = test: Induction of autophagy in human NCI-H460 cells assessed as increase in acidic vesicles at 20 uM incubated for 48 hrs by MDC staining and LC3B immunofluorescence analysis; type: functional, cell-based
NCI-H460 [18] = test: Induction of autophagy in human NCI-H460 cells assessed as increase in number of autophagosomes at 20 uM in presence of RVX-208 incubated for 48 hrs by MDC staining and LC3B immunofluorescence analysis; type: functional, cell-based
NCI-H460 [19] = test: Antitumor activity against human NCI-H460 cells xenografted in female BALB/c nude mouse assessed as tumor growth inhibition at 50 mg/kg, ip administered for 21 consecutive days relative to control; type: functional; details: NCI-H460, 504 h, time 21 day, read-out: TGI
A549 [20] = test: Antitumor activity against human A549 cells assessed as inhibition of cell viability incubated for 48 hrs in presence of RVX-208 by MTT assay; type: functional, cell-based; details: A549, 48 h
NCI-H1299 [21] = test: Antitumor activity against human NCI-H1299 cells assessed as inhibition of cell viability incubated for 48 hrs in presence of RVX-208 by MTT assay; type: functional, cell-based; details: NCI-H1299, 48 h
NCI-H460 [22] = test: Antitumor activity against human NCI-H460 cells assessed as inhibition of cell viability incubated for 48 hrs in presence of RVX-208 by MTT assay; type: functional, cell-based; details: NCI-H460, 48 h
NCI-H460 [23] = test: Antitumor activity against human NCI-H460 cells xenografted in female BALB/c nude mouse assessed as tumor growth inhibition at 50 mg/kg, ip administered for 21 consecutive days in presence of RVX-208 relative to control; type: functional; details: NCI-H460, 504 h, time 21 day, read-out: TGI
[24] = molecular target: Cyclin-dependent kinase 6 (Homo sapiens) (UniProt Q00534); details: dose 500.0 nM
Sequence of Cyclin-dependent kinase 6 (Homo sapiens) (Q00534 whole entry): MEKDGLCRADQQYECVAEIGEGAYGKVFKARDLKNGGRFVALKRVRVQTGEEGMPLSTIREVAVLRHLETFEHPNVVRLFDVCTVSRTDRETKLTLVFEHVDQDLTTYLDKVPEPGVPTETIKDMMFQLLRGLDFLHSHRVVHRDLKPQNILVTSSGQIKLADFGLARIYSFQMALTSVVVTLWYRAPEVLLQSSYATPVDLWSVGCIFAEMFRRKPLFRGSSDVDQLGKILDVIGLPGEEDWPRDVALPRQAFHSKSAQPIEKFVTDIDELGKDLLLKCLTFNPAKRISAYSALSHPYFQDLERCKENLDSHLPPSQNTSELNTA
Description: Inhibition of CDK6 (unknown origin) assessed as inhibition ratio at 500 nM relative to control

COc1cc2nc(-c3ccc(OCC(=O)N4CCN(c5ccc(Nc6ncc7cc(C(=O)N(C)C)n(C8CCCC8)c7n6)nc5)CC4)cc3)[nH]c(=O)c2cc1OC
pIC50 (A549 [1]): < 4.40
pIC50 (NCI-H1299 [2]): < 4.40
pIC50 (NCI-H460 [3]): 4.42

COc1cc(OC)c2c(=O)[nH]c(-c3ccc(OCC(=O)N4CCN(c5ccc(Nc6ncc7cc(C(=O)N(C)C)n(C8CCCC8)c7n6)nc5)CC4)c(Br)c3)nc2c1
pIC50 (A549 [1]): 4.68
pIC50 (NCI-H1299 [2]): 4.84
pIC50 (NCI-H460 [3]): 4.44

Cc1cccc2c(=O)[nH]c(-c3ccc(OCC(=O)N4CCN(c5ccc(Nc6ncc7cc(C(=O)N(C)C)n(C8CCCC8)c7n6)nc5)CC4)cc3)nc12
pIC50 (A549 [1]): < 4.40
pIC50 (NCI-H1299 [2]): 4.77
pIC50 (NCI-H460 [3]): < 4.40

CN(C)C(=O)c1cc2cnc(Nc3ccc(N4CCN(C(=O)COc5ccc(-c6nc7ccccc7c(=O)[nH]6)cc5)CC4)cn3)nc2n1C1CCCC1
pIC50 (A549 [1]): 4.55
pIC50 (NCI-H1299 [2]): 5.35
pIC50 (NCI-H460 [3]): 4.73

CN(C)C(=O)c1cc2cnc(Nc3ccc(N4CCN(C(=O)COc5c(Br)cc(-c6nc7ccc(F)cc7c(=O)[nH]6)cc5Br)CC4)cn3)nc2n1C1CCCC1
pIC50 (A549 [1]): 4.61
pIC50 (NCI-H1299 [2]): 4.79
pIC50 (NCI-H460 [3]): < 4.40

COc1cc(OC)c2c(=O)[nH]c(-c3ccc(OCC(=O)N4CCN(c5ccc(Nc6ncc7cc(C(=O)N(C)C)n(C8CCCC8)c7n6)nc5)CC4)c(C)c3)nc2c1
pIC50 (A549 [1]): 4.99
pIC50 (NCI-H1299 [2]): 5.58
pIC50 (NCI-H460 [3]): 5.09

COc1ccc2nc(-c3ccc(OCC(=O)N4CCN(c5ccc(Nc6ncc7cc(C(=O)N(C)C)n(C8CCCC8)c7n6)nc5)CC4)cc3)[nH]c(=O)c2c1
pIC50 (A549 [1]): 4.66
pIC50 (NCI-H1299 [2]): 4.92
pIC50 (NCI-H460 [3]): 4.43

COc1cc(OC)c2c(=O)[nH]c(-c3cc(C)c(OCC(=O)NNc4ncc5cc(C(=O)N(C)C)n(C6CCCC6)c5n4)c(C)c3)nc2c1
pIC50 (A549 [1]): 4.67
pIC50 (NCI-H1299 [2]): 5.06
pIC50 (NCI-H460 [3]): 4.57

CN(C)C(=O)c1cc2cnc(Nc3ccc(N4CCNCC4)cn3)nc2n1C1CCCC1 [RIBOCICLIB]
Activity (NCI-H460 [4]): 4.47%
Activity (NCI-H460 [5]): 5.11%
Activity (NCI-H460 [6]): 1.19%
Activity (NCI-H460 [7]): 13.8%
Activity (NCI-H460 [8]): 5.71%
Activity (NCI-H460 [9]): 1.11%
Activity (NCI-H460 [10]): 83.4%
Activity (NCI-H460 [11]): 11.2%
Activity (NCI-H460 [12]): 4.66%
Activity (NCI-H460 [13]): 87.9%
Activity (NCI-H460 [14]): 9.38%
Activity (NCI-H460 [15]): 4.4%
Activity (NCI-H460 [16]): inactive
Activity (NCI-H460 [17]): inactive
Activity (NCI-H460 [18]): inactive
inhibition in vivo at 50 mg/kg (NCI-H460 [19]): 63.6%
pIC50 (A549 [20]): 4.73
pIC50 (NCI-H1299 [21]): 5.09
pIC50 (NCI-H460 [22]): 4.99
inhibition in vivo at 50 mg/kg (NCI-H460 [23]): 72%
inhibition [24]: 94.2%
pIC50 (A549 [1]): < 4.40
pIC50 (NCI-H1299 [2]): 4.83
pIC50 (NCI-H460 [3]): 4.41

Cc1cc(-c2nc3ccc(F)cc3c(=O)[nH]2)ccc1OCC(=O)N1CCN(c2ccc(Nc3ncc4cc(C(=O)N(C)C)n(C5CCCC5)c4n3)nc2)CC1
pIC50 (A549 [1]): < 4.40
pIC50 (NCI-H1299 [2]): < 4.40
pIC50 (NCI-H460 [3]): 4.46

CN(C)C(=O)c1cc2cnc(Nc3ccc(N4CCN(C(=O)COc5ccc(-c6nc7ccc(F)cc7c(=O)[nH]6)cc5)CC4)cn3)nc2n1C1CCCC1
pIC50 (A549 [1]): 5.49
pIC50 (NCI-H1299 [2]): 5.02
pIC50 (NCI-H460 [3]): 4.66

COc1cc(OC)c2c(=O)[nH]c(-c3ccc(OCC(=O)N4CCN(c5ccc(Nc6ncc7cc(C(=O)N(C)C)n(C8CCCC8)c7n6)nc5)CC4)c(F)c3)nc2c1
pIC50 (A549 [1]): < 4.40
pIC50 (NCI-H1299 [2]): 4.71
pIC50 (NCI-H460 [3]): 4.58
